This assay deals with T1, human CCR5 (Homo sapiens, UniProt P51681).
T1 construct: expressed in transfected cells; host or cells: CHO-dhfr(-)
The assay can be described thus: Inhibition test on the binding of RANTES to CCR5 (RANTES-induced transient increase of Ca ion) in CCR5/CHO cells. The class given is cell-based. As to conditions: human CCR5 stably over-expressing CHO cell; recombinant human RANTES 10 nM; intracellular Ca2+ transient increase (Fura-2AM). The method, then:
(1) Isolation of Human CCR5 Gene Human placental cDNA was prepared using Marathon cDNA amplification kit (Clontech). PCR primers hCCR5Xbal-F1: Using the human placental cDNA as the template and using Ex Taq (Takara), PCR reaction (2 minutes at 95° C. {cube root}(30 seconds at 95° C., 45 seconds at 60° C., 1 minute at 72° C.)×35 times) was carried out. The thus amplified PCR product was subjected to a 1% agarose gel electrophoresis, purified using QIAquick Gel Extraction Kit (QUIAGEN) and then digested with a restriction enzyme XbaI. The digested fragments were ligated to an expression vector pEF-BOS-bsr using DNA Ligation Kit Ver. 2 (Takara) and transformed into Escherichia coli DH5α. By preparing the resulting plasmid pEF-BOS-bsr/hCCR5, its DNA sequence was verified. CHO-dhfr(−) was cultured using Ham's F-12 (containing fetal bovine serum (10%), penicillin (50 U/ml) and streptomycin ([…])). […] Transient increase in the intracellular Ca^2+ concentration induced by the human RANTES was measured using a Ca^2+ detector for 96 well use (Hamamatsu Photonics), and inhibition ratio (%) of the test compound was calculated by the following calculation formula. • Inhibition ratio=(Ec−Ea)/Ec×100 • Ec: measured value of Ca^2+ transient increase by RANTES • Ea: measured value of Ca^2+ transient increase by RANTES when a test compound was added.

Where a name gives a salt, the structure may show the parent alone.

T1 sequence (P51681 whole entry): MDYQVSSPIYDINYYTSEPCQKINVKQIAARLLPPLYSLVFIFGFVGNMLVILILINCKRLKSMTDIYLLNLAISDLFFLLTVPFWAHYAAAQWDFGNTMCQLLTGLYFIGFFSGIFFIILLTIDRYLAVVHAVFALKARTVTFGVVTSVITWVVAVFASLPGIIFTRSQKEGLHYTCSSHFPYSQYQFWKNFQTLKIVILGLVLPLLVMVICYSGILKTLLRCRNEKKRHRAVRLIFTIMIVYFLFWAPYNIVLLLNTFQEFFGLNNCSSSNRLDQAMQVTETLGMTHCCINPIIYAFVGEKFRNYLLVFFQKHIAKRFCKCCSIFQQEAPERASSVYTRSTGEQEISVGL

For orientation: IC50 means the concentration needed to halve the response being measured. In the case of `CCCCN1C(=O)[C@H](CC2CCCCC2)NC(=O)C12CCN(Cc1ccccc1)CC2C` (stereo partly drawn) [Example 1, (3S)-9-benzyl-1-butyl-3-(cyclohexylmethyl)-7-methyl-1,4,9-triazaspiro[5.5]undecane-2,5-dione hydrochloride], the IC50 was 760 nM.

These data come from patent publication US20070155713A1, “Nitrogen-containing heterocyclic compounds and use thereof” (priority 2003, published 2007).
